Assay results published in ChEMBL document CHEMBL4373652, “Mechanism of thienopyridone and iminothienopyridinedione inhibition of protein phosphatases” (Medchemcomm, 2019).
Active and inactive are the calls of the source. The calls are words filed in the database; no cut-off is given here.

Assays:
Homo sapiens = species on record: Homo sapiens; assay: (§1) Inhibition of recombinant human C-terminal 6His-tagged PTPN22 G126V/V147G double mutant expressed in bacterial expression system assessed as rate of product DiFMU formed at 2 uM using DiFMUP as substrate preincubated with enzyme for 2.5 hrs followed by substrate addition measured for 1 min by fluorescence based assay (reference value: 11.9 nM/sec)
[1] = molecular target: T1, Receptor-type tyrosine-protein phosphatase C (Homo sapiens) (UniProt P08575); assay: Inhibition of C-terminal 6His-tagged PTPRC (627-1228 residues) (unknown origin) expressed in Escherichia coli BL21 (DE3) at 2 uM using DiFMUP as substrate preincubated with enzyme and catalase for 2.5 hrs prior to substrate addition measured for 1 min by fluorescence based assay
T1 sequence (whole entry): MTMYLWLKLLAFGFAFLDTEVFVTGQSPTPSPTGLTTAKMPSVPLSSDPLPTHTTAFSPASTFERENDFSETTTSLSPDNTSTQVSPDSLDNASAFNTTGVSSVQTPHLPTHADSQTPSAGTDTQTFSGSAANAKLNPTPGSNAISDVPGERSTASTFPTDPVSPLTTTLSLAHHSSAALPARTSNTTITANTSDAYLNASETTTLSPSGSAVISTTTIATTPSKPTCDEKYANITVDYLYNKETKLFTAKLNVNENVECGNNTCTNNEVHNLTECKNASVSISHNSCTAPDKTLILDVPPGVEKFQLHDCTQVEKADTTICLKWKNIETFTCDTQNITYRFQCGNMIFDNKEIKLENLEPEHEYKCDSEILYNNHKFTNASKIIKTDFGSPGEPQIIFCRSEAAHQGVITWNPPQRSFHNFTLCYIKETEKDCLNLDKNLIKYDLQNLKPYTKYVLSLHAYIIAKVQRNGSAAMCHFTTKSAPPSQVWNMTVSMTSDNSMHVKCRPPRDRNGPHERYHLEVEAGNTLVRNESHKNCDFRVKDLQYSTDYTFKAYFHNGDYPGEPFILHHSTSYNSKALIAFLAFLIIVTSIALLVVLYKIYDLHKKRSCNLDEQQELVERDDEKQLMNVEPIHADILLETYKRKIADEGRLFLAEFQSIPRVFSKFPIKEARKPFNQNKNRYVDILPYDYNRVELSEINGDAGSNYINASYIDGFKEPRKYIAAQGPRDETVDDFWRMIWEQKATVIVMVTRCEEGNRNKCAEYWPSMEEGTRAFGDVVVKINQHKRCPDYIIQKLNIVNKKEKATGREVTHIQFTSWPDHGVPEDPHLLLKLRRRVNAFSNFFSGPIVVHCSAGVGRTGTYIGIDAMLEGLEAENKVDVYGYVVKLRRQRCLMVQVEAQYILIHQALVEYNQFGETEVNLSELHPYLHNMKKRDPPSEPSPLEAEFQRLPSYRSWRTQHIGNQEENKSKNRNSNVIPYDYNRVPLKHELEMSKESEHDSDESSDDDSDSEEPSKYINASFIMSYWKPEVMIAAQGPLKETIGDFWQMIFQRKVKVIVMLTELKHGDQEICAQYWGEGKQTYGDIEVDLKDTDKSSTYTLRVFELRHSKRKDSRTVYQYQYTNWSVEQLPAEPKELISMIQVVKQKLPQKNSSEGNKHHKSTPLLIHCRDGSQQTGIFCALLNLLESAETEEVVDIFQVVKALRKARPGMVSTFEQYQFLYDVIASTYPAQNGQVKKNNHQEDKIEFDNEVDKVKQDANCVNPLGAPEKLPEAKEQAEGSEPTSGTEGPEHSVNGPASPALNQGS

[2] = Induction of TCEP oxidation assessed as increase in rate of reduction of resazurin at 5 uM incubated up to 2 hrs by resazurin based assay
[3] = molecular target: T2, Receptor-type tyrosine-protein phosphatase O (Homo sapiens) (UniProt Q16827); assay: as §1, with “N-terminal His-tagged PTPRO” for “C-terminal 6His-tagged PTPN22 G126V/V147G double mutant”, “prior to” for “followed by”, “209.7” for “11.9”
T2 sequence (whole entry): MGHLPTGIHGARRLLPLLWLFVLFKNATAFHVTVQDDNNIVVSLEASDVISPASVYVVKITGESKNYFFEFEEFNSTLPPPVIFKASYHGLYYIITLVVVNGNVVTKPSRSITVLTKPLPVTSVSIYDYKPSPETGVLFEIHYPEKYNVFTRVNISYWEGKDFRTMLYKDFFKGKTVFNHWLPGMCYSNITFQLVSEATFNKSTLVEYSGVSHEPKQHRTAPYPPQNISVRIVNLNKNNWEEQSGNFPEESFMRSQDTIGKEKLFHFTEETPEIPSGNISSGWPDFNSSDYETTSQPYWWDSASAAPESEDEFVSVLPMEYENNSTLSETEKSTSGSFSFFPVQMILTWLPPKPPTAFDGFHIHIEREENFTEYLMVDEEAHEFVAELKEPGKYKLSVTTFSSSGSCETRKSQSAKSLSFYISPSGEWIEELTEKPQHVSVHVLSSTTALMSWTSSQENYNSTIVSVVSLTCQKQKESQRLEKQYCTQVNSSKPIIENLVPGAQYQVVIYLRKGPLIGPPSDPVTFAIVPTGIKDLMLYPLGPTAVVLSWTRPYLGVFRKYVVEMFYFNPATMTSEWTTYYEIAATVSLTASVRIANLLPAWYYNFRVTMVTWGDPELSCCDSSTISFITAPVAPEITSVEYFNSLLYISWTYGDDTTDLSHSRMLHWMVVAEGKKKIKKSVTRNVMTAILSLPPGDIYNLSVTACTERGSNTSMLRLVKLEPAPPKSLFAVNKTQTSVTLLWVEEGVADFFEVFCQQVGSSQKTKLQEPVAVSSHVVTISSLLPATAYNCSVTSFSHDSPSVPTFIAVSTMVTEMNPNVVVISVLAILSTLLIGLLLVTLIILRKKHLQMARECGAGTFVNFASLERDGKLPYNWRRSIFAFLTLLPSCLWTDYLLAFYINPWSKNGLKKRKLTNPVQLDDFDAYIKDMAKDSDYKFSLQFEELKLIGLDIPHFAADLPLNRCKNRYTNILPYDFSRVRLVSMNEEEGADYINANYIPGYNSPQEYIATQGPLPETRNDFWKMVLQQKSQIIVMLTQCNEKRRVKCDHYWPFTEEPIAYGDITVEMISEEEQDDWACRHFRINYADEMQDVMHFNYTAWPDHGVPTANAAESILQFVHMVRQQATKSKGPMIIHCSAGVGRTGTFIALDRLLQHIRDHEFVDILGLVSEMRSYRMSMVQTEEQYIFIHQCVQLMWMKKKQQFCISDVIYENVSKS

[4] = molecular target: T3, Tyrosine-protein phosphatase non-receptor type 1 (Homo sapiens) (UniProt P18031); assay: Inhibition of human PTP1B at 25 nM using DiFMUP as substrate preincubated with enzyme prior to substrate addition by fluorescence based assay; conditions: TDE = time-dependent effect
T3 sequence (whole entry): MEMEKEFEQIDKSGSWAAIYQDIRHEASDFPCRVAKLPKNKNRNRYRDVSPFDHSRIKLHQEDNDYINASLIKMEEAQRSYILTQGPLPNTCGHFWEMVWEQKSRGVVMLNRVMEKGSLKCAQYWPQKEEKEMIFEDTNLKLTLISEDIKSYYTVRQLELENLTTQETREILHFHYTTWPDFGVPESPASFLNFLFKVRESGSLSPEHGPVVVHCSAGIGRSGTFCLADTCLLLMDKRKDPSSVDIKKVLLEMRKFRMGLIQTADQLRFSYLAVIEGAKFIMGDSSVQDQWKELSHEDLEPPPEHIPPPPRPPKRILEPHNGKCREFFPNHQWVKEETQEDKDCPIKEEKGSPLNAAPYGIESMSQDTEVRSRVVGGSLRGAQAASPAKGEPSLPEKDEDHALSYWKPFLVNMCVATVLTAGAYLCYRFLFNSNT

[5] = Induction of TCEP oxidation at 1 mM in 80% d6-acetone and 20% d6-DMSO incubated for 2 hrs by 15N-1H NMR spectroscopy relative to control
[6] = molecular target: T2, Receptor-type tyrosine-protein phosphatase O (Homo sapiens); assay: Inhibition of recombinant human N-terminal His-tagged PTPRO expressed in bacterial expression system assessed as enzyme residual activity at 2 uM using DiFMUP as substrate preincubated with enzyme for 2.5 hrs prior to substrate addition measured for 1 min by fluorescence based assay
[7] = molecular target: Protein tyrosine phosphatase type IVA 3 (Mus musculus) (UniProt Q9D658); assay: Inhibition of mouse His-tagged wild type PRL3 at 0.6 uM using DiFMUP as substrate preincubated with enzyme for 10 mins prior to substrate addition by fluorescence based assay relative to control
Chain of Protein tyrosine phosphatase type IVA 3 (Mus musculus) (Q9D658 whole entry): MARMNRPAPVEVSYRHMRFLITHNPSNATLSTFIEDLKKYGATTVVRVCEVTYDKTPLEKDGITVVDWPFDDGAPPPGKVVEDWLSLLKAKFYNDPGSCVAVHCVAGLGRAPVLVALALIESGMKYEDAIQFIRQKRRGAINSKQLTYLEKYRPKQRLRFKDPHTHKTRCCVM

Mus musculus = species on record: Mus musculus; assay: Inhibition of mouse His-tagged PRL3 C49A mutant at 0.6 uM using DiFMUP as substrate preincubated with enzyme for 10 mins prior to substrate addition by fluorescence based assay relative to control
[8] = Induction of TCEP oxidation assessed as increase in rate of reduction of resazurin at 5 uM after 3 to 5 secs by resazurin based assay
[9] = Induction of glutathione oxidation at 1 mM incubated for 2 hrs in 80% d6-DMSO and 20% D2O by 15N-1H NMR spectroscopy relative to control

inhibition [7] [%]	inhibition (Mus musculus) [%]	Activity [8]	Activity [9] [%]	SMILES	Activity (Homo sapiens) [nM/s]	inhibition [1]	Activity [2]	Activity [3] [nM/s]	inhibition [4]	fold change (FC) [5]	Activity [6] [%]
				N=C1C(=O)NC(=O)c2cc(-c3ccccc3)sc21	0.3	inactive	Active	15.3	Tde	20	7.3
55	10	Active	70	Nc1c[nH]c(=O)c2cc(-c3ccccc3)sc12			Active		Tde	5	
